Patent publication US20250354979A1, “DRUG EVALUATION METHOD, REAGENT, AND KIT” (FUJIFILM Corporation, priority 2023, published 2025)

Columns and labels:
[1] = system: human iPS cell-derived myocardial cells; test: Heart rate of myocardial cells by MEA, serum-free culture medium with isoproterenol and carbachol added; type: cell-based; details: serum-free culture medium with 1 μmol/L isoproterenol and 3 μmol/L carbachol; cumulative drug concentrations, 20 minutes after addition; vs medium control
Protocol: (§1) Example 4: Method and results of evaluating increase in heart rate by muscarinic receptor inhibitor (atropine) using serum-free culture medium to which adrenergic receptor agonist (isoproterenol) and muscarinic receptor agonist (carbachol) are added Human iPS cell-derived myocardial cells (iCell myocardial cells 2.0, manufactured by FUJIFILM Cellular Dynamics, Inc.) in a frozen state were thawed, suspended in a thawing culture medium (iCell myocardial cell thawing culture medium, manufactured by FUJIFILM Cellular Dynamics, Inc.), and then seeded at a cell density of 50,000 cells per well on a MEA plate (Cyto View MEA 48, manufactured by Axion BioSystems, Inc.). The seeding density of myocardial cells in the vicinity of the electrode was 2,725 cells/mm^2. After the plate was allowed to stand in a CO2 incubator for several hours, a maintenance culture medium (iCell myocardial cell maintenance culture medium, manufactured by FUJIFILM Cellular Dynamics, Inc.) containing serum was added, and the myocardial cells were cultured in the CO2 incubator for about one week. The culture medium was exchanged with a serum-free culture medium (a myocardial cell serum-free assay culture medium, manufactured by FUJIFILM Cellular Dynamics, Inc.) on the day before the measurement.
(§2) On the day of measurement, the MEA plate on which human iPS cell-derived myocardial cells were cultured was placed in an MEA system (Maestro Pro, manufactured by Axion BioSystems, Inc.), 1 μmol/L of isoproterenol (manufactured by Tokyo Chemical Industry Co., Ltd.) and 3 μmol/L of carbachol (manufactured by Tokyo Chemical Industry Co., Ltd.) were added to the culture medium, and then the extracellular potential was measured after 20 minutes from the addition (medium control, atropine concentration: 0 μmol/L). Subsequently, 0.01 μmol/L of atropine (manufactured by Tokyo Chemical Industry Co., Ltd.) was added to the MEA plate, and then the extracellular potential was measured after 20 minutes from the addition. Similarly, atropine was added to give concentrations of 0.1 μmol/L and 1 μmol/L, and then the extracellular potential was measured at each concentration.
From the measurement results of the extracellular potential, the interval between sharp peaks indicating depolarization of human iPS cell-derived myocardial cells was taken as the beating time (sec), and the heart rate (/min)=60/beating time (sec) was calculated. The addition of atropine was confirmed to result in an increase in heart rate of up to 51% (FIG. 7).
In the same manner as in Example 4, evaluation was carried out using an MEA plate on which human iPS cell-derived myocardial cells were cultured. Specifically, the same operations as in Example 4 were carried out except that atropine added in Example 4 was changed to tiotropium (manufactured by Tokyo Chemical Industry Co., Ltd.) and the concentration of tiotropium added was 1 pmol/L, 10 pmol/L, 100 pmol/L, and 1,000 pmol/L.
In the same manner as in Example 4, evaluation was carried out using an MEA plate on which human iPS cell-derived myocardial cells were cultured. Specifically, the same operations as in Example 4 were carried out except that atropine added in Example 4 was changed to glycopyrronium (manufactured by Tokyo Chemical Industry Co., Ltd.) and the concentration of glycopyrronium added was 0.01 nmol/L, 0.1 nmol/L, 1 nmol/L, and 10 nmol/L.
In the same manner as in Example 4, evaluation was carried out using an MEA plate on which human iPS cell-derived myocardial cells were cultured. Specifically, the same operations as in Example 4 were carried out except that the atropine added in Example 4 was changed to propranolol (manufactured by FUJIFILM Wako Pure Chemical Corporation) and the concentration of propranolol added was 0.1 nmol/L, 1 nmol/L, 10 nmol/L, and 100 nmol/L.
In the same manner as in Example 4, evaluation was carried out using an MEA plate on which human iPS cell-derived myocardial cells were cultured. […]

[2] = system: human iPS cell-derived myocardial cells; test: Heart rate of myocardial cells by MEA, serum-free culture medium with isoproterenol added; type: cell-based; details: serum-free culture medium with 1 μmol/L isoproterenol; cumulative drug concentrations, 20 minutes after addition; vs medium control
Protocol: as §1, with “1:” for “4:”, “decrease” for “increase”, “agonist (carbachol)” for “inhibitor (atropine)”, “is” for “and muscarinic receptor agonist (carbachol) are”, “2,671” for “2,725”, “The culture medium was exchanged with a serum-free culture medium (a myocardial cell serum-free assay culture medium, manufactured by FUJIFILM Cellular Dynamics, Inc.) on the day before the measurement.” left out
as §2, with “Ltd.) was” for “Ltd.) and 3 μmol/L of carbachol (manufactured by Tokyo Chemical Industry Co., Ltd.) were”, “control, carbachol” for “control, atropine”, “of carbachol” for “of atropine”, “Similarly, carbachol” for “Similarly, atropine”, “0.1 μmol/L, 1 μmol/L,” for “0.1 μmol/L”, “and 10” for “and 1”
From the measurement results of the extracellular potential, the interval between sharp peaks indicating depolarization of human iPS cell-derived myocardial cells was taken as the beating time (sec), and the heart rate (/min)=60/ beating time (sec) was calculated. […]

| SMILES | increase in heart rate [1] | decrease in heart rate [2] |
| --- | --- | --- |
| CN1[C@@H]2CC[C@H]1C[C@@H](OC(=O)C(CO)c1ccccc1)C2 (some centres unmarked) [atropine] | up to 51% |  |
| C[N+](C)(C)CCOC(N)=O [carbachol] |  | up to 34% |
